± gives the expanded uncertainty stated by the source.
Experiment: xn = mol fraction of the nth substance listed
Conditions: Liquid, Vibrating tube method

CCCCCCCC [octane] + CCCCCC
mass density (342.93 K, 1000 kPa, x2 = 0.5749): 640.49 ± 0.27 kg/m3 | mass density (342.93 K, 2000 kPa, x2 = 0.5749): 641.81 ± 0.28 kg/m3 | mass density (342.93 K, 3000 kPa, x2 = 0.5749): 643.05 ± 0.29 kg/m3 | mass density (342.93 K, 4000 kPa, x2 = 0.5749): 644.29 ± 0.3 kg/m3 | mass density (342.93 K, 5000 kPa, x2 = 0.5749): 645.58 ± 0.31 kg/m3 | mass density (342.93 K, 6000 kPa, x2 = 0.5749): 646.83 ± 0.32 kg/m3 | mass density (342.93 K, 7000 kPa, x2 = 0.5749): 648.05 ± 0.32 kg/m3 | mass density (342.93 K, 8000 kPa, x2 = 0.5749): 649.28 ± 0.33 kg/m3 | mass density (342.93 K, 9000 kPa, x2 = 0.5749): 650.49 ± 0.34 kg/m3 | mass density (342.93 K, 10000 kPa, x2 = 0.5749): 651.67 ± 0.35 kg/m3 | mass density (342.93 K, 11000 kPa, x2 = 0.5749): 652.87 ± 0.36 kg/m3 | mass density (342.93 K, 12000 kPa, x2 = 0.5749): 654.03 ± 0.37 kg/m3 | mass density (342.93 K, 13000 kPa, x2 = 0.5749): 655.19 ± 0.38 kg/m3 | mass density (342.93 K, 14000 kPa, x2 = 0.5749): 656.31 ± 0.39 kg/m3 | mass density (342.93 K, 15000 kPa, x2 = 0.5749): 657.42 ± 0.4 kg/m3 | mass density (342.93 K, 16000 kPa, x2 = 0.5749): 658.5 ± 0.41 kg/m3 | mass density (342.93 K, 17000 kPa, x2 = 0.5749): 659.57 ± 0.42 kg/m3 | mass density (342.93 K, 18000 kPa, x2 = 0.5749): 660.6 ± 0.43 kg/m3 | mass density (342.93 K, 19000 kPa, x2 = 0.5749): 661.62 ± 0.44 kg/m3 | mass density (342.93 K, 20000 kPa, x2 = 0.5749): 662.6 ± 0.45 kg/m3 | mass density (342.93 K, 21000 kPa, x2 = 0.5749): 663.59 ± 0.46 kg/m3 | mass density (342.93 K, 22000 kPa, x2 = 0.5749): 664.52 ± 0.47 kg/m3 | mass density (342.93 K, 23000 kPa, x2 = 0.5749): 665.48 ± 0.48 kg/m3 | mass density (342.93 K, 24000 kPa, x2 = 0.5749): 666.39 ± 0.49 kg/m3 | mass density (342.93 K, 25000 kPa, x2 = 0.5749): 667.28 ± 0.5 kg/m3 | mass density (342.94 K, 1000 kPa, x2 = 0.2199): 655.33 ± 0.27 kg/m3 | mass density (342.94 K, 2000 kPa, x2 = 0.2199): 656.52 ± 0.27 kg/m3 | mass density (342.94 K, 3000 kPa, x2 = 0.2199): 657.67 ± 0.28 kg/m3 | mass density (342.94 K, 4000 kPa, x2 = 0.2199): 658.87 ± 0.29 kg/m3 | mass density (342.94 K, 5000 kPa, x2 = 0.2199): 660.02 ± 0.3 kg/m3 | mass density (342.94 K, 6000 kPa, x2 = 0.2199): 661.18 ± 0.31 kg/m3 | mass density (342.94 K, 7000 kPa, x2 = 0.2199): 662.34 ± 0.31 kg/m3 | mass density (342.94 K, 8000 kPa, x2 = 0.2199): 663.49 ± 0.32 kg/m3 | mass density (342.94 K, 9000 kPa, x2 = 0.2199): 664.6 ± 0.33 kg/m3 | mass density (342.94 K, 10000 kPa, x2 = 0.2199): 665.73 ± 0.34 kg/m3 | mass density (342.94 K, 11000 kPa, x2 = 0.2199): 666.84 ± 0.35 kg/m3 | mass density (342.94 K, 12000 kPa, x2 = 0.2199): 667.93 ± 0.36 kg/m3 | mass density (342.94 K, 13000 kPa, x2 = 0.2199): 669.01 ± 0.37 kg/m3 | mass density (342.94 K, 14000 kPa, x2 = 0.2199): 670.06 ± 0.38 kg/m3 | mass density (342.94 K, 15000 kPa, x2 = 0.2199): 671.09 ± 0.39 kg/m3 | mass density (342.94 K, 16000 kPa, x2 = 0.2199): 672.1 ± 0.4 kg/m3 | mass density (342.94 K, 17000 kPa, x2 = 0.2199): 673.1 ± 0.4 kg/m3 | mass density (342.94 K, 18000 kPa, x2 = 0.2199): 674.07 ± 0.41 kg/m3 | mass density (342.94 K, 19000 kPa, x2 = 0.2199): 675.02 ± 0.42 kg/m3 | mass density (342.94 K, 20000 kPa, x2 = 0.2199): 675.95 ± 0.43 kg/m3 | mass density (342.94 K, 21000 kPa, x2 = 0.2199): 676.87 ± 0.44 kg/m3 | mass density (342.94 K, 22000 kPa, x2 = 0.2199): 677.76 ± 0.45 kg/m3 | mass density (342.94 K, 23000 kPa, x2 = 0.2199): 678.64 ± 0.46 kg/m3 | mass density (342.94 K, 24000 kPa, x2 = 0.2199): 679.49 ± 0.47 kg/m3 | mass density (342.94 K, 25000 kPa, x2 = 0.2199): 680.34 ± 0.48 kg/m3 | mass density (342.98 K, 1000 kPa, x2 = 0.9308): 619.48 ± 0.28 kg/m3 | mass density (342.98 K, 2000 kPa, x2 = 0.9308): 620.92 ± 0.29 kg/m3 | mass density (342.98 K, 3000 kPa, x2 = 0.9308): 622.34 ± 0.3 kg/m3 | mass density (342.98 K, 4000 kPa, x2 = 0.9308): 623.76 ± 0.31 kg/m3 | mass density (342.98 K, 5000 kPa, x2 = 0.9308): 625.17 ± 0.32 kg/m3 | mass density (342.98 K, 6000 kPa, x2 = 0.9308): 626.56 ± 0.33 kg/m3 | mass density (342.98 K, 7000 kPa, x2 = 0.9308): 627.93 ± 0.34 kg/m3 | mass density (342.98 K, 8000 kPa, x2 = 0.9308): 629.29 ± 0.35 kg/m3 | mass density (342.98 K, 9000 kPa, x2 = 0.9308): 630.63 ± 0.36 kg/m3 | mass density (342.98 K, 10000 kPa, x2 = 0.9308): 631.94 ± 0.37 kg/m3 | mass density (342.98 K, 11000 kPa, x2 = 0.9308): 633.24 ± 0.38 kg/m3 | mass density (342.98 K, 12000 kPa, x2 = 0.9308): 634.53 ± 0.39 kg/m3 | mass density (342.98 K, 13000 kPa, x2 = 0.9308): 635.77 ± 0.4 kg/m3 | mass density (342.98 K, 14000 kPa, x2 = 0.9308): 637.01 ± 0.41 kg/m3 | mass density (342.98 K, 15000 kPa, x2 = 0.9308): 638.23 ± 0.42 kg/m3 | mass density (342.98 K, 16000 kPa, x2 = 0.9308): 639.42 ± 0.43 kg/m3 | mass density (342.98 K, 17000 kPa, x2 = 0.9308): 640.57 ± 0.44 kg/m3 | mass density (342.98 K, 18000 kPa, x2 = 0.9308): 641.7 ± 0.45 kg/m3 | mass density (342.98 K, 19000 kPa, x2 = 0.9308): 642.81 ± 0.46 kg/m3 | mass density (342.98 K, 20000 kPa, x2 = 0.9308): 643.91 ± 0.47 kg/m3 | mass density (342.98 K, 21000 kPa, x2 = 0.9308): 644.95 ± 0.48 kg/m3 | mass density (342.98 K, 22000 kPa, x2 = 0.9308): 645.97 ± 0.49 kg/m3 | mass density (342.98 K, 23000 kPa, x2 = 0.9308): 646.98 ± 0.5 kg/m3 | mass density (342.98 K, 24000 kPa, x2 = 0.9308): 647.95 ± 0.52 kg/m3 | mass density (342.98 K, 25000 kPa, x2 = 0.9308): 648.91 ± 0.53 kg/m3 | mass density (342.99 K, 1000 kPa, x2 = 0.1654): 657.36 ± 0.27 kg/m3 | mass density (342.99 K, 2000 kPa, x2 = 0.1654): 658.52 ± 0.27 kg/m3 | mass density (342.99 K, 3000 kPa, x2 = 0.1654): 659.68 ± 0.28 kg/m3 | mass density (342.99 K, 4000 kPa, x2 = 0.1654): 660.84 ± 0.29 kg/m3 | mass density (342.99 K, 5000 kPa, x2 = 0.1654): 662.01 ± 0.3 kg/m3 | mass density (342.99 K, 6000 kPa, x2 = 0.1654): 663.15 ± 0.3 kg/m3 | mass density (342.99 K, 7000 kPa, x2 = 0.1654): 664.27 ± 0.31 kg/m3 | mass density (342.99 K, 8000 kPa, x2 = 0.1654): 665.4 ± 0.32 kg/m3 | mass density (342.99 K, 9000 kPa, x2 = 0.1654): 666.53 ± 0.33 kg/m3 | mass density (342.99 K, 10000 kPa, x2 = 0.1654): 667.62 ± 0.34 kg/m3 | mass density (342.99 K, 11000 kPa, x2 = 0.1654): 668.73 ± 0.35 kg/m3 | mass density (342.99 K, 12000 kPa, x2 = 0.1654): 669.8 ± 0.36 kg/m3 | mass density (342.99 K, 13000 kPa, x2 = 0.1654): 670.86 ± 0.37 kg/m3 | mass density (342.99 K, 14000 kPa, x2 = 0.1654): 671.91 ± 0.38 kg/m3 | mass density (342.99 K, 15000 kPa, x2 = 0.1654): 672.94 ± 0.38 kg/m3 | mass density (342.99 K, 16000 kPa, x2 = 0.1654): 673.96 ± 0.39 kg/m3 | mass density (342.99 K, 17000 kPa, x2 = 0.1654): 674.95 ± 0.4 kg/m3 | mass density (342.99 K, 18000 kPa, x2 = 0.1654): 675.92 ± 0.41 kg/m3
